Data: PubChem BioAssay (NCI)
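96-well plates; 48 h exposure; 5 concentrations. Endpoints by linear interpolation between flanking doses. Not reached: highest tested concentration assigned. At the TGI there is no net growth.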

Tests used:
Assay in all cases: NCI anticancer screen, dose series, 48 h
SN12C renal = tested on: SN12C renal
HCT-15 colon = tested on: HCT-15 colon
786-0 renal = tested on: 786-0 renal
SR leukemia = tested on: SR leukemia
IGROV1 ovarian = tested on: IGROV1 ovarian
U251 CNS = tested on: U251 CNS
MDA-MB-435 = tested on: MDA-MB-435
HCC-2998 colon = tested on: HCC-2998 colon
CAKI-1 renal = tested on: CAKI-1 renal
OVCAR-4 ovarian = tested on: OVCAR-4 ovarian
NCI/ADR-RES ovarian = tested on: NCI/ADR-RES ovarian
HT29 colon = tested on: HT29 colon
MALME-3M melanoma = tested on: MALME-3M melanoma
OVCAR-3 ovarian = tested on: OVCAR-3 ovarian
OVCAR-5 ovarian = tested on: OVCAR-5 ovarian
SNB-19 CNS = tested on: SNB-19 CNS
SF-295 CNS = tested on: SF-295 CNS
UO-31 renal = tested on: UO-31 renal
HL-60(TB) leukemia = tested on: HL-60(TB) leukemia
MCF7 breast = tested on: MCF7 breast
EKVX NSCLC = tested on: EKVX NSCLC
K-562 leukemia = tested on: K-562 leukemia
UACC-257 melanoma = tested on: UACC-257 melanoma
SK-MEL-2 melanoma = tested on: SK-MEL-2 melanoma
T-47D breast = tested on: T-47D breast
M14 melanoma = tested on: M14 melanoma
SK-OV-3 ovarian = tested on: SK-OV-3 ovarian
OVCAR-8 ovarian = tested on: OVCAR-8 ovarian
NCI-H522 lung = tested on: NCI-H522 lung
CCRF-CEM leukemia = tested on: CCRF-CEM leukemia
BT-549 breast = tested on: BT-549 breast
SW-620 colon = tested on: SW-620 colon
HS 578T breast = tested on: HS 578T breast
SK-MEL-5 melanoma = tested on: SK-MEL-5 melanoma
HOP-62 NSCLC = tested on: HOP-62 NSCLC
UACC-62 melanoma = tested on: UACC-62 melanoma
TK-10 renal = tested on: TK-10 renal
A549 NSCLC = tested on: A549 NSCLC
SF-268 CNS = tested on: SF-268 CNS
SK-MEL-28 melanoma = tested on: SK-MEL-28 melanoma
SF-539 CNS = tested on: SF-539 CNS
LOX IMVI melanoma = tested on: LOX IMVI melanoma
PC-3 prostate = tested on: PC-3 prostate
NCI-H460 lung = tested on: NCI-H460 lung
NCI-H23 lung = tested on: NCI-H23 lung
MDA-N = tested on: MDA-N
DU-145 prostate = tested on: DU-145 prostate
MDA-MB-231 breast = tested on: MDA-MB-231 breast
ACHN renal = tested on: ACHN renal
KM12 colon = tested on: KM12 colon
HCT-116 colon = tested on: HCT-116 colon
A498 renal = tested on: A498 renal
RXF 393 renal = tested on: RXF 393 renal
MOLT-4 leukemia = tested on: MOLT-4 leukemia
RPMI-8226 leukemia = tested on: RPMI-8226 leukemia
COLO 205 colon = tested on: COLO 205 colon
SNB-75 CNS = tested on: SNB-75 CNS
HOP-92 NSCLC = tested on: HOP-92 NSCLC
NCI-H226 lung = tested on: NCI-H226 lung

COC1=C(OC)C(=O)C(Cc2c(Cl)nc3n2CCS3)=C(C)C1=O
TGI (SN12C renal): 31.3 µM
TGI (HCT-15 colon): 39.8 µM
TGI (786-0 renal): 37.9 µM
TGI (SR leukemia): 25.9 µM
TGI (IGROV1 ovarian): 30.5 µM
TGI (U251 CNS): 35.2 µM
TGI (MDA-MB-435): 29.2 µM
TGI (HCC-2998 colon): 37.6 µM
TGI (CAKI-1 renal): 46.7 µM
TGI (OVCAR-4 ovarian): 21 µM
TGI (NCI/ADR-RES ovarian): 34.2 µM
TGI (HT29 colon): 35.6 µM
TGI (MALME-3M melanoma): 21.6 µM
TGI (OVCAR-3 ovarian): 37.2 µM
TGI (OVCAR-5 ovarian): 36 µM
TGI (SNB-19 CNS): 33.1 µM
TGI (SF-295 CNS): 30.4 µM
TGI (UO-31 renal): 28.3 µM
TGI (HL-60(TB) leukemia): 6.4 µM
TGI (MCF7 breast): 33 µM
TGI (EKVX NSCLC): 26.3 µM
TGI (K-562 leukemia): 39.9 µM
TGI (UACC-257 melanoma): 22.2 µM
TGI (SK-MEL-2 melanoma): 32.2 µM
TGI (T-47D breast): 54.1 µM
TGI (M14 melanoma): 27.2 µM
TGI (SK-OV-3 ovarian): 25.1 µM
TGI (OVCAR-8 ovarian): 29.8 µM
TGI (NCI-H522 lung): 25.4 µM
TGI (CCRF-CEM leukemia): 8.98 µM
TGI (BT-549 breast): 27.5 µM
TGI (SW-620 colon): 33.8 µM
TGI (HS 578T breast): 66.1 µM
TGI (SK-MEL-5 melanoma): 23.9 µM
TGI (HOP-62 NSCLC): 29.1 µM
TGI (UACC-62 melanoma): 26.4 µM
TGI (TK-10 renal): 32 µM
TGI (A549 NSCLC): 40.6 µM
TGI (SF-268 CNS): 41.3 µM
TGI (SK-MEL-28 melanoma): 27.2 µM
TGI (SF-539 CNS): 28.1 µM
TGI (LOX IMVI melanoma): 29.3 µM
TGI (PC-3 prostate): 64.2 µM
TGI (NCI-H460 lung): 30.8 µM
TGI (NCI-H23 lung): 47.5 µM
TGI (MDA-N): 26.8 µM
TGI (DU-145 prostate): 40 µM
TGI (MDA-MB-231 breast): 27.5 µM
TGI (ACHN renal): 33.2 µM
TGI (KM12 colon): 30.8 µM
TGI (HCT-116 colon): 25.3 µM
TGI (A498 renal): 35.6 µM
TGI (RXF 393 renal): 36.4 µM
TGI (MOLT-4 leukemia): 3.28 µM
TGI (RPMI-8226 leukemia): 26.9 µM
TGI (COLO 205 colon): 31.5 µM

CN(C)/C=N/S(=O)(=O)c1nn2c(C=O)c(-c3cc4ccccc4oc3=O)nc2s1
TGI (SN12C renal): 24.5 µM
TGI (HCT-15 colon): 27.6 µM
TGI (786-0 renal): 5.24 µM
TGI (SR leukemia): 36.5 µM
TGI (IGROV1 ovarian): 25.1 µM
TGI (U251 CNS): > 42.6 µM
TGI (MDA-MB-435): 62.4 µM
TGI (HCC-2998 colon): 48.5 µM
TGI (SNB-75 CNS): > 82.1 µM
TGI (CAKI-1 renal): 4.95 µM
TGI (OVCAR-4 ovarian): 28.3 µM
TGI (NCI/ADR-RES ovarian): > 100 µM
TGI (HT29 colon): 2.97 µM
TGI (MALME-3M melanoma): 6.07 µM
TGI (OVCAR-3 ovarian): 17.3 µM
TGI (OVCAR-5 ovarian): > 84.3 µM
TGI (SNB-19 CNS): > 100 µM
TGI (SF-295 CNS): > 100 µM
TGI (UO-31 renal): 4.84 µM
TGI (HL-60(TB) leukemia): 4.05 µM
TGI (MCF7 breast): > 36.6 µM
TGI (EKVX NSCLC): 43 µM
TGI (K-562 leukemia): > 24.4 µM
TGI (UACC-257 melanoma): 29.3 µM
TGI (SK-MEL-2 melanoma): 40.1 µM
TGI (T-47D breast): 18.6 µM
TGI (SK-OV-3 ovarian): > 100 µM
TGI (OVCAR-8 ovarian): > 42 µM
TGI (NCI-H522 lung): 3.09 µM
TGI (CCRF-CEM leukemia): 7.33 µM
TGI (BT-549 breast): 33.1 µM
TGI (SW-620 colon): > 29.4 µM
TGI (HOP-92 NSCLC): 19.2 µM
TGI (HS 578T breast): > 27 µM
TGI (SK-MEL-5 melanoma): 12 µM
TGI (HOP-62 NSCLC): > 59.2 µM
TGI (UACC-62 melanoma): 27.5 µM
TGI (TK-10 renal): 14.8 µM
TGI (A549 NSCLC): > 63.5 µM
TGI (SF-268 CNS): > 44.9 µM
TGI (SK-MEL-28 melanoma): 12.1 µM
TGI (SF-539 CNS): 61 µM
TGI (LOX IMVI melanoma): 15.4 µM
TGI (NCI-H226 lung): > 56.5 µM
TGI (PC-3 prostate): > 48.5 µM
TGI (NCI-H460 lung): > 88.1 µM
TGI (NCI-H23 lung): 42.4 µM
TGI (MDA-N): 20.7 µM
TGI (DU-145 prostate): > 36.6 µM
TGI (MDA-MB-231 breast): 32.3 µM
TGI (ACHN renal): 5.9 µM
TGI (KM12 colon): > 49 µM
TGI (HCT-116 colon): 5.89 µM
TGI (A498 renal): 55.3 µM
TGI (RXF 393 renal): 9.97 µM
TGI (MOLT-4 leukemia): > 20.6 µM
TGI (RPMI-8226 leukemia): 30.4 µM
